Assays:
Assay in all cases: relative viability (nuclei count vs DMSO), 5 days (fraction); higher = more cells survive
Bleomycin + Phenformin = compound: CC1=C(N=C(N=C1N)[C@H](CC(=O)N)NC[C@@H](C(=O)N)N)C(=O)N[C@@H]([C@H](C2=CN=CN2)OC3C(C(C(C(O3)CO)O)O)OC4C(C(C(C(O4)CO)O)OC(=O)N)O)C(=O)N[C@H](C)[C@H]([C@H](C)C(=O)N[C@@H]([C@@H](C)O)C(=O)NCCC5=NC(=CS5)C6=NC(=CS6)C(=O)NCCC[S+](C)C)O [Bleomycin] + N=C(N)NC(=N)NCCc1ccccc1 [Phenformin] (partner 250 µM); conditions: main component drawn
Outline: (§1)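 Relative viability equals treated-well nuclei counts divided by vehicle-well nuclei counts. Counts came from 4× images of lung cancer cell lines grown in 1536-well plates for 5 days after pin-tool dosing on the day after seeding. Dosing used one drug alone or a fixed anchor-drug dose plus five library-drug doses (not always all listed) in √10 steps, and values are medians of duplicate plates.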

Etoposide + Bortezomib = compound: COc1cc([C@@H]2c3cc4c(cc3[C@@H](O[C@@H]3O[C@@H]5CO[C@@H](C)O[C@H]5[C@H](O)[C@H]3O)[C@H]3COC(=O)[C@H]23)OCO4)cc(OC)c1O [Etoposide] + CC(C)C[C@H](NC(=O)[C@H](Cc1ccccc1)NC(=O)c1cnccn1)B(O)O [Bortezomib] (partner 0.002 µM)
Outline: as §1

Etoposide + Lapatinib = compound: COc1cc([C@@H]2c3cc4c(cc3[C@@H](O[C@@H]3O[C@@H]5CO[C@@H](C)O[C@H]5[C@H](O)[C@H]3O)[C@H]3COC(=O)[C@H]23)OCO4)cc(OC)c1O [Etoposide] + CS(=O)(=O)CCNCc1ccc(-c2ccc3ncnc(Nc4ccc(OCc5cccc(F)c5)c(Cl)c4)c3c2)o1 [Lapatinib] (partner 2 µM)
Outline: as §1

Bleomycin + Tozasertib = compound: CC1=C(N=C(N=C1N)[C@H](CC(=O)N)NC[C@@H](C(=O)N)N)C(=O)N[C@@H]([C@H](C2=CN=CN2)OC3C(C(C(C(O3)CO)O)O)OC4C(C(C(C(O4)CO)O)OC(=O)N)O)C(=O)N[C@H](C)[C@H]([C@H](C)C(=O)N[C@@H]([C@@H](C)O)C(=O)NCCC5=NC(=CS5)C6=NC(=CS6)C(=O)NCCC[S+](C)C)O [Bleomycin] + Cc1cc(Nc2cc(N3CCN(C)CC3)nc(Sc3ccc(NC(=O)C4CC4)cc3)n2)n[nH]1 [Tozasertib] (partner 0.1 µM); conditions: main component drawn
Outline: as §1

| Cell Line | relative viability (Bleomycin + Phenformin; first compound 0.01 µM) | relative viability (Bleomycin + Phenformin; first compound 0.03162 µM) | relative viability (Bleomycin + Phenformin; first compound 0.1 µM) | relative viability (Bleomycin + Phenformin; first compound 0.3162 µM) | relative viability (Bleomycin + Phenformin; first compound 1 µM) | relative viability (Etoposide + Bortezomib; first compound 0.01 µM) | relative viability (Etoposide + Bortezomib; first compound 0.03162 µM) | relative viability (Etoposide + Bortezomib; first compound 0.1 µM) | relative viability (Etoposide + Bortezomib; first compound 0.3162 µM) | relative viability (Etoposide + Bortezomib; first compound 1 µM) | relative viability (Etoposide + Lapatinib; first compound 0.01 µM) | relative viability (Etoposide + Lapatinib; first compound 0.03162 µM) | relative viability (Etoposide + Lapatinib; first compound 0.1 µM) | relative viability (Etoposide + Lapatinib; first compound 0.3162 µM) | relative viability (Etoposide + Lapatinib; first compound 1 µM) | relative viability (Bleomycin + Tozasertib; first compound 0.01 µM) | relative viability (Bleomycin + Tozasertib; first compound 0.03162 µM) | relative viability (Bleomycin + Tozasertib; first compound 0.1 µM) | relative viability (Bleomycin + Tozasertib; first compound 0.3162 µM) | relative viability (Bleomycin + Tozasertib; first compound 1 µM) |
| --- | --- | --- | --- | --- | --- | --- | --- | --- | --- | --- | --- | --- | --- | --- | --- | --- | --- | --- | --- | --- |
| NCI-H1563 | 0.581 | 0.658 | 0.64 | 0.551 | 0.511 | 0.802 | 0.866 | 0.781 | 0.618 | 0.605 | 0.935 | 0.868 | 0.817 | 0.646 | 0.526 |  |  |  |  |  |
| NCI-H1623 | 0.548 | 0.631 | 0.513 | 0.442 | 0.333 |  |  |  |  |  |  |  |  |  |  | 0.393 | 0.427 | 0.417 | 0.301 | 0.32 |
| NCI-H1648 |  |  |  |  |  |  |  |  |  |  |  |  |  |  |  | 0.383 |  | 0.401 | 0.405 | 0.379 |
| NCI-H1703 |  |  |  |  |  | 0.433 | 0.519 | 0.294 | 0.22 | 0.198 |  | 1.14 | 0.866 | 0.376 | 0.271 |  |  |  |  |  |
| NCI-H1792 | 0.316 | 0.309 | 0.195 | 0.197 | 0.164 | 0.899 | 0.878 | 0.819 | 0.897 | 0.581 | 0.939 | 0.832 | 0.883 | 0.798 | 0.595 |  |  |  |  |  |
| NCI-H1793 | 0.389 | 0.417 | 0.349 | 0.211 | 0.131 |  |  |  |  |  | 0.543 | 0.682 |  | 0.687 | 0.288 | 0.339 | 0.308 | 0.362 | 0.191 | 0.171 |
| NCI-H1944 | 0.145 | 0.144 | 0.141 | 0.116 | 0.102 |  |  |  |  |  | 0.76 | 1.01 | 0.499 | 0.363 | 0.226 | 0.196 | 0.197 | 0.187 | 0.147 | 0.12 |
| NCI-H2170 | 0.415 | 0.426 | 0.422 | 0.374 | 0.338 |  |  |  |  |  | 0.294 | 0.264 |  | 0.292 | 0.23 | 0.627 | 0.826 | 0.735 | 0.549 | 0.372 |
| NCI-H2342 | 0.552 | 0.707 | 0.626 | 0.441 | 0.528 |  |  |  |  |  |  |  |  |  |  | 0.537 | 0.522 | 0.493 | 0.432 | 0.445 |
| SK-MES-1 | 0.58 | 0.617 | 0.546 | 0.217 | 0.174 |  |  |  |  |  | 0.461 | 0.538 | 0.368 | 0.426 | 0.272 | 0.531 | 0.542 | 0.35 | 0.15 | 0.134 |
| SW 900 | 0.592 | 0.447 | 0.335 | 0.11 | 0.16 |  |  |  |  |  |  |  |  |  |  | 0.507 | 0.467 | 0.341 | 0.208 | 0.174 |

From the supplement of paper PMC10307832
